Reference: US20250230193A1, “CYCLIC COMPOUND HAVING SELECTIVE KRAS INHIBITORY EFFECT ON HRAS AND NRAS” (CHUGAI SEIYAKU KABUSHIKI KAISHA, priority 2022, published 2025)
Where two headings read alike, the source gives them in different places. *1 amine or outer side, *2 acyl side, *3 side chain or, on linkers, in order; H or OH if unused. Where a SMILES comes first, the peptide text is derived from it. Bridges are numbered along the chain shown (N, C = ends). [ ]: non-standard residue; d: D form. The star is where a group is joined. hPhe(3,5-F2-4-CF3) = N[C@@H](CCc1cc(F)c(C(F)(F)F)c(F)c1)C(=O)O; NPrPhe(4-CF3) = CCCN[C@@H](Cc1ccc(C(F)(F)F)cc1)C(=O)O; X1 = CN([C@@H](CCCC=[*:3])C(=O)[*:2])[*:1]; X2 = C[C@@](CC=[*:3])(N[*:1])C(=O)[*:2]; NMeGly(cPent) = CN[C@H](C(=O)O)C1CCCC1; Hyp = O=C(O)[C@@H]1C[C@@H](O)CN1; NMeD = CN[C@@H](CC(=O)O)C(=O)O; Morpholide = C1CN(*)CCO1; Sar = CNCC(=O)O

Legend:
[1] = biological target: GDP-bound HRAS wild-type protein (Homo sapiens, UniProt P01112); experiment: Binding to HRAS by surface plasmon resonance (SPR), Single Cycle Kinetics; conditions: SPR; for HRAS/KRAS (ratio of KD value with respect to HRAS to KD value with respect to KRAS): GDP-bound HRAS wild-type vs GDP-bound KRAS wild-type
Chain of GDP-bound HRAS wild-type protein (P01112 whole entry): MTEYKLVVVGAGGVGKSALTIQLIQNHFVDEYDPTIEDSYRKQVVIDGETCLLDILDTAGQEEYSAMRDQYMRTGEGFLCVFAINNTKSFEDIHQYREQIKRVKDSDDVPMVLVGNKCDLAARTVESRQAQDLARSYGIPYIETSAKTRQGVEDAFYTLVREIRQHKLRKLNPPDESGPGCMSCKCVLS

[2] = biological target: GDP-bound KRAS wild-type protein (Homo sapiens, UniProt P01116); experiment: Binding to KRAS by surface plasmon resonance (SPR), Single Cycle Kinetics
[3] = test system: human lung cancer strain NCI-H441
[4] = biological target: GDP-bound NRAS wild-type protein (Homo sapiens, UniProt P01111); experiment: Binding to NRAS by surface plasmon resonance (SPR), Single Cycle Kinetics; conditions: SPR; for NRAS/KRAS (ratio of KD value with respect to NRAS to KD value with respect to KRAS): GDP-bound NRAS wild-type vs GDP-bound KRAS wild-type
Chain of GDP-bound NRAS wild-type protein (P01111 whole entry): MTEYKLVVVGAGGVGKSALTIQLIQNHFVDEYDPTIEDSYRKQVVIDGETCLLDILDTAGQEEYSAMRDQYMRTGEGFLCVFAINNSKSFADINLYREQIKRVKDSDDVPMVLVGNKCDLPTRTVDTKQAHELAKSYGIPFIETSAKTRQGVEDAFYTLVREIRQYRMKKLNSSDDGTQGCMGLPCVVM

[5] = GDP-bound KRAS wild-type protein, SPR Single Cycle Kinetics, 1:1 binding model
[6] = SPR, Single Cycle Kinetics, GDP-bound KRAS wild-type protein
[7] = read-out: NCI-H441 IC50, NCI-H441 cells, 4 days, CellTiter-Glo

| Compound | HRAS/KRAS (ratio of KD value with respect to GDP-bound HRAS wild-type protein to KD value with respect to KRAS) [1] | Kd [2, 5] [nM] | IC50 [3] [nM] | NRAS/KRAS (ratio of KD value with respect to GDP-bound NRAS wild-type protein to KD value with respect to KRAS) [4] | HRAS/KRAS (ratio of KD value with respect to HRAS to KD value with respect to KRAS) [1] | Kd [2, 6] [nM] | NRAS/KRAS (ratio of KD value with respect to NRAS to KD value with respect to KRAS) [4] | also measured |
| --- | --- | --- | --- | --- | --- | --- | --- | --- |
| CC[C@H](C)[C@@H]1NC(=O)[C@H](CC(C)C)N(C)C(=O)C[C@@H](C(=O)N(C)C)N(C)C(=O)[C@H](C2CCCC2)N(C)C(=O)C2(CCCC2)NC(=O)C2CCCN2C(=O)[C@H](CCc2ccc(C(F)(F)F)c(Cl)c2)NC(=O)CN(C)C(=O)[C@H](Cc2ccc(C(F)(F)F)cc2)N2CC/C=C(/C)C[C@@H](C2=O)N(C)C(=O)CN(C)C1=O (stereo partly drawn) [PP0617] | B (a compound having 3 or more and less than 10 is denoted as B) | 6.9 | 159 | B (a compound having 3 or more and less than 10 is denoted as B) | – | – | – | – |
| CC[C@H](C)C1NC(=O)[C@H](CC(C)C)N(C)C(=O)C[C@@H](C(=O)N(C)C)N(C)C(=O)[C@H](C2CCCC2)N(C)C(=O)C2(CCCC2)NC(=O)C2CCCN2C(=O)[C@@H](CCc2ccc(C(F)(F)F)c(Cl)c2)NC(=O)CN(C)C(=O)[C@@H](Cc2ccc(C(F)(F)F)cc2)N2CC/C=C\CCN(CC2=O)C(=O)CN(C)C1=O (stereo partly drawn) [PP0619] | C (A compound having a KD ratio of 0.1 or more and less than 3 is denoted as C) | 3.7 | 70.7 | C (A compound having a KD ratio of 0.1 or more and less than 3 is denoted as C) | – | – | – | – |
| CC[C@H](C)[C@@H]1NC(=O)[C@H](CC(C)C)N(C)C(=O)C[C@@H](C(=O)N(C)C)N(C)C(=O)[C@H](C2CCCC2)N(C)C(=O)C2(CCCC2)NC(=O)[C@@H]2CCCN2C(=O)[C@H](CCc2ccc(C(F)(F)F)c(Cl)c2)NC(=O)CN(C)C(=O)[C@H](Cc2ccc(C(F)(F)F)cc2)N2CC=C(C)C[C@@H](C2=O)N(C)C(=O)CN(C)C1=O [PP0621] | C (A compound having a KD ratio of 0.1 or more and less than 3 is denoted as C) | 2.4 | 83.6 | C (A compound having a KD ratio of 0.1 or more and less than 3 is denoted as C) | – | – | – | – |
| CC[C@H](C)[C@@H]1NC(=O)[C@H](CC(C)C)N(C)C(=O)C[C@@H](C(=O)N(C)C)N(C)C(=O)[C@H](C2CCCC2)N(C)C(=O)C2(CCCC2)NC(=O)[C@@H]2CCCN2C(=O)[C@H](CCc2ccc(C(F)(F)F)c(Cl)c2)NC(=O)CN(C)C(=O)[C@H](Cc2ccc(C(F)(F)F)cc2)N2C/C=C\COC[C@@H](C2=O)N(C)C(=O)CN(C)C1=O [PP0626] | C (A compound having a KD ratio of 0.1 or more and less than 3 is denoted as C) | 7.1 | 158 | C (A compound having a KD ratio of 0.1 or more and less than 3 is denoted as C) | – | – | – | – |
| CCCN1C(=O)CN(C)C(=O)CN(C)C(=O)[C@H]([C@@H](C)CC)NC(=O)[C@@H]2CCC/C=C\C[C@](C)(NC(=O)[C@@H]3C[C@@H](OCC)CN3C(=O)[C@H](CCc3cc(F)c(C(F)(F)F)c(F)c3)NC(=O)CN(C)C(=O)[C@@H]1Cc1ccc(C(F)(F)F)cc1)C(=O)N(C)[C@@H](C1CCCC1)C(=O)N(C)[C@H](C(=O)N1CCOCC1)CC(=O)N2C [PP0901] ([X1]I[Sar][Sar][NPrPhe(4-CF3)][Sar][hPhe(3,5-F2-4-CF3)][Hyp](Et)[X2][NMeGly(cPent)][NMeD]-Morpholide; staple (Z) 1-9; lactam N-11) | – | – | 332 | – | B (a compound having 3 or more and less than 10 is denoted as B) | 3 | B (a compound having 3 or more and less than 10 is denoted as B) | – |
| CCO[C@@H]1C[C@H]2C(=O)NC3(CCC3)C(=O)N(C)[C@@H](C3CCCC3)C(=O)N(CC)[C@H](C(=O)N(C)C)CC(=O)N(C)[C@@H](CC)C(=O)N[C@@H]([C@@H](C)CC)C(=O)N(C)CC(=O)N(C)[C@H]3CCCCCN(C3=O)[C@@H](Cc3ccc(F)cc3)C(=O)N(C)CC(=O)N[C@@H](CCc3cc(F)c(C(F)(F)F)c(F)c3)C(=O)N2C1 [PP0904] | – | – | 58.7 | – | B (a compound having 3 or more and less than 10 is denoted as B) | 0.8 | B (a compound having 3 or more and less than 10 is denoted as B) | – |
| CCO[C@@H]1C[C@H]2C(=O)NC3(CCC3)C(=O)N(C)[C@@H](C3CCCC3)C(=O)N(CC)[C@H](C(=O)N3CCOCC3)CC(=O)N(C)[C@@H](CC)C(=O)N[C@@H]([C@@H](C)CC)C(=O)N(C)CC(=O)N(C)[C@H]3CCCCCN(C3=O)[C@@H](Cc3ccc(F)cc3)C(=O)N(C)CC(=O)N[C@@H](CCc3cc(F)c(C(F)(F)F)c(F)c3)C(=O)N2C1 [PP0905] | – | – | 92 | – | B (a compound having 3 or more and less than 10 is denoted as B) | 0.79 | B (a compound having 3 or more and less than 10 is denoted as B) | – |
| CCO[C@@H]1C[C@H]2C(=O)NC3(CCC3)C(=O)N(C)[C@@H](C3CCCC3)C(=O)N(C)[C@H](C(=O)N(C)C)CC(=O)N(C)[C@@H](CC)C(=O)N[C@@H]([C@@H](C)CC)C(=O)N(C)CC(=O)N(C)[C@H]3CCCCCN(C3=O)[C@@H](Cc3ccc(F)cc3F)C(=O)N(C)CC(=O)N[C@@H](CCc3cc(F)c(C(F)(F)F)c(F)c3)C(=O)N2C1 [PP0906] | – | – | 36.9 | – | B (a compound having 3 or more and less than 10 is denoted as B) | 0.29 | B (a compound having 3 or more and less than 10 is denoted as B) | – |
| CCO[C@@H]1C[C@H]2C(=O)NC3(CCC3)C(=O)N(C)[C@@H](C3CCCC3)C(=O)N(C)[C@H](C(=O)N3CCOCC3)CC(=O)N(C)[C@@H](CC(C)C)C(=O)N[C@@H]([C@@H](C)CC)C(=O)N(C)CC(=O)N(C)[C@H]3CCCCCN(C3=O)[C@@H](Cc3ccc(F)cc3F)C(=O)N(C)CC(=O)N[C@@H](CCc3cc(F)c(C(F)(F)F)c(F)c3)C(=O)N2C1 [PP0916] | – | – | 35.9 | – | B (a compound having 3 or more and less than 10 is denoted as B) | 0.34 | B (a compound having 3 or more and less than 10 is denoted as B) | – |
| CCCCCC[C@H]1C(=O)N[C@@H]([C@@H](C)CC)C(=O)N(C)CC(=O)N(C)[C@H]2C/C=C\CCN(C2=O)[C@@H](Cc2ccc(C(F)(F)F)cc2)C(=O)N(C)CC(=O)N[C@@H](CCc2cc(F)c(C(F)(F)F)c(F)c2)C(=O)N2C[C@H](OCC)C[C@H]2C(=O)NC2(CCC2)C(=O)N(C)[C@@H](C2CCCC2)C(=O)N(C)[C@H](C(=O)N(C)C)CC(=O)N1C [PP1242] | – | – | – | – | – | 0.076 | – | HRAS/KRAS (ratio of KD value for GDP-bound HRAS wild-type protein to KD value for KRAS) ([1]; KD ratio class): A (a compound having 10 or more and less than 20 is denoted as A); IC50 [3, 7]: 12.8 nM; NRAS/KRAS (ratio of KD value for GDP-bound NRAS wild-type protein to KD value for KRAS) ([4]; KD ratio class): A (a compound having 10 or more and less than 20 is denoted as A) |
| CCO[C@@H]1C[C@H]2C(=O)NC3(CCC3)C(=O)N(C)[C@@H](C3CCCC3)C(=O)N(C)[C@H](C(=O)N(C)C)CC(=O)N(C)[C@@H](CC3CCCC3)C(=O)N[C@@H]([C@@H](C)CC)C(=O)N(C)CC(=O)N(C)[C@H]3C/C=C\CCN(C3=O)[C@@H](Cc3ccc(C(F)(F)F)cc3)C(=O)N(C)CC(=O)N[C@@H](CCc3ccc(C(F)(F)F)c(OC)c3)C(=O)N2C1 [PP1248] | – | – | – | – | – | – | – | Kd [2]: 0.069 nM; IC50 [3, 7]: 7.3 nM |
| CCC[C@H]1C(=O)N[C@@H]([C@@H](C)CC)C(=O)N(C2CC2)CC(=O)N(C)[C@H]2C/C=C\CCN(C2=O)[C@@H](Cc2ccc(C)cc2)C(=O)N(C)CC(=O)N[C@@H](CCc2cc(F)c(C(F)(F)F)c(F)c2)C(=O)N2C[C@H](OCC)C[C@H]2C(=O)N(C)C2(CCC2)C(=O)N(C)[C@@H](C2CCCC2)C(=O)N(C)[C@H](C(=O)N2CCCCC2)CC(=O)N1C [PP3111, (2S,8S,12R,14S,20S,23S,27S,30S,36S,38Z)-20-cyclopentyl-32-cyclopropyl-8-[2-[3,5-difluoro-4-(trifluoromethyl)phenyl]ethyl]-12-ethoxy-4,16,19,22,26,35-hexamethyl-30-[(1S)-1-methylpropyl]-23-(piperidine-1-carbonyl)-27-propyl-2-(p-tolylmethyl)spiro[1,4,7,10,16,19,22,26,29,32,35-undecazatricyclo[34.5.1.0^10,14]dotetracont-38-ene-17,1′-cyclobutane]-3,6,9,15,18,21,25,28,31,34,42-undecone] | – | – | – | – | – | – | – | HRAS/KRAS (ratio of KD value with respect to GDP-bound HRAS wild-type protein to KD value with respect to KRAS) ([1]; GDP-bound wild-type proteins): A (a compound having 10 or more and less than 20 is denoted as A); Kd ([2]; SPR Single Cycle Kinetics, GDP-bound KRAS wild-type protein, 1:1 binding model): 4.8 nM; NRAS/KRAS (ratio of KD value with respect to GDP-bound NRAS wild-type protein to KD value with respect to KRAS) ([4]; GDP-bound wild-type proteins): A (a compound having 10 or more and less than 20 is denoted as A) |
